According to patent publication US5610297A, “Peptides ketoamides” (Georgia Tech Research Corp., priority 1995, dated 1997):

Legend:
[1] = test system: Calpain-mediated breakdown of spectrin in platelets; test: Platelet membrane permeability assay; format: cell-based, rat; set-up: key: +++ = excellent activity; ++ = good activity; + = moderate activity; quantitative measurements not yet complete; conditions: class symbols; quantitative measurements not yet complete
Procedure: Platelet membrane permeability assay. Calpain-mediated breakdown of spectrin was measured by quantitative densitometry of the calpain-specific 150/155 kDa spectrin fragment doublet [see Siman et al., Proc. Natl. Acad. Sci. USA 81, 3572-3576 (1984)]. Platelets were isolated by a modification of the method of Ferrell and Martin [J. Biol. Chem. 264, 20723-20729 (1989)]. Blood (15-20 ml) was drawn from male Sprague-Dawley rats into 1/10th volume of 100 mM EDTA-citrate, and centrifuged 10 minutes at 2000 rpm in a clinical centrifuge at room temperature. […] Platelets were washed once in 15 ml buffer 1, then resuspended to 10^7 cells/ml in buffer 2 (136 mM NaCl, 2.7 mM KCl, 0.42 mM NaH2 PO4, 12 mM NaHCO3, 2mM MgCl, 1 mg/ml BSA (Sigma), 5.6 mM glucose, 20 mM HEPES (Sigma) pH 7.4) and allowed to "rest" for a minimum of 10 minutes at room temperature before use.
Inhibitors were added from stock solutions made fresh in DMSO. 100 μl platelets, suspended to 10^7 cells/ml in buffer 2, were incubated with 1 μl of an inhibitor solution for 5 minutes at room temperature prior to the addition of 2 mM Ca^2+ and 1 uM A23 187. After 10 minutes total exposure to inhibitor (5 minutes exposure to ionophore) at room temperature, platelets were reisolated at 14,000 rpm for 10 sec in a Beckman microfuge, dissolved in SDS-PAGE sample buffer, and heated to 90° C. for 3 minutes.
Samples were subjected to SDS-PAGE in 4-12% gradient mini gels (Novex) and transferred to nitrocellulose (Schleicher and Schuell 0.45 um) by electroblotting. Filters were blocked for 10 minutes in 0.25% gelatin, 1% BSA, 0.25% triton X100, 0.9% NaCl, 10 mM Tris-Cl pH 7.5, incubated overnight in the same solution containing antibody to rat spectrin, washed 3×10 minutes with 10 mM Tris-Cl pH 7.5, 0.5% triton X100, incubated 4 hours in wash buffer plus alkaline phosphatase conjugated goat anti-rabbit antibody (Biorad), and washed as above. Blots were developed using the Biorad AP conjugate substrate kit. Quantitative densitometry was used to obtain values for the intact spectrin bands and the 150/155 kDa breakdown product doublet.

Half-life in plasma = format: in vitro ADME; conditions: unit inferred, unit assumed
cathepsin B = cathepsin B (Homo sapiens, UniProt P07858); conditions: reported by Hu and Abeles; cited from earlier work
papain = target: T1, papain (Carica papaya, UniProt P00784); conditions: reported by Hu and Abeles; cited from earlier work
T1 sequence (P00784 134-345): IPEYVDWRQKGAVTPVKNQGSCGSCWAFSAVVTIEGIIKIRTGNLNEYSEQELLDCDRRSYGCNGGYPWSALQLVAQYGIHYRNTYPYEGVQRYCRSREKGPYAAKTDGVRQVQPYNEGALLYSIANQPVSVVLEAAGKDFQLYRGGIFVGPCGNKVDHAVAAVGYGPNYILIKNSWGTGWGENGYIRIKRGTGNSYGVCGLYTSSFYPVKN

| Compound | platelet (Activity in the Platelet Assay) [1] | t 1/2 plasma (Half-life in plasma) [min] | Ki (cathepsin B) [µM] | Ki (papain) [µM] |
| --- | --- | --- | --- | --- |
| CCOC(=O)C(=O)[C@H](Cc1ccccc1)NC(=O)[C@H](CC(C)C)NC(=O)[C@H](CC(C)C)NC(=O)OCc1ccccc1 [Z--Leu--Leu--Phe--COOEt] | ++ | – | – | – |
| CC(C)CC(NC(=O)OCc1ccccc1)C(=O)NC(Cc1ccccc1)C(=O)C(=O)OCc1ccccc1 (stereo not shown) [Z--Leu--Phe--COOBz] | ++ | 1.9 | – | – |
| CCCCOC(=O)C(=O)[C@H](Cc1ccccc1)NC(=O)[C@H](CC(C)C)NC(=O)OCc1ccccc1 [Z--Leu--Phe--COOnBu] | +++ | 7.7 | – | – |
| CC[C@H](NC(=O)[C@H](CC(C)C)NC(=O)OCc1ccccc1)C(=O)C(=O)OCc1ccccc1 [Z--Leu--Abu--COOBzl] | ++ | – | – | – |
| CCOC(=O)C(=O)C(CCSC)NC(=O)C(CC(C)C)NC(=O)OCc1ccccc1 (stereo not shown) [Z--Leu--Met--COOEt] | + | 8 | – | – |
| CCNC(=O)C(=O)CNC(=O)[C@H](Cc1ccccc1)NC(=O)OCc1ccccc1 [Z-Phe-Gly-CO--NH-Et] | – | – | 4 | 1.5 |
